Converted amounts (≈) assume the structure as drawn.
Key:
MDR P. aeruginosa C218 = system: T1, MDR P. aeruginosa C218; experiment: microbe, parasite or virus in culture; set-up: species or system Pseudomonas aeruginosa C218; CLSI broth micro-dilution MIC, complete inhibition of visible growth; settings: Pseudomonas aeruginosa
T1 construct: C218
Protocol: MIC determination using the standard micro-dilution method was performed according to the Clinical and Laboratory Standards Institute ([29]). […] Experiments were performed in triplicate.

PqsA G279A = biological target: T2, PqsA G279A (Pseudomonas aeruginosa, UniProt Q9I4X3, G279A); experiment: biolayer interferometry (Octet K2); format: binding
T2 construct: His6-tagged PqsA G279A (pET30a-His6-pqsA^G279A), expressed in E. coli BL21 Star (DE3)
T2 sequence (Q9I4X3 1-517 G279A): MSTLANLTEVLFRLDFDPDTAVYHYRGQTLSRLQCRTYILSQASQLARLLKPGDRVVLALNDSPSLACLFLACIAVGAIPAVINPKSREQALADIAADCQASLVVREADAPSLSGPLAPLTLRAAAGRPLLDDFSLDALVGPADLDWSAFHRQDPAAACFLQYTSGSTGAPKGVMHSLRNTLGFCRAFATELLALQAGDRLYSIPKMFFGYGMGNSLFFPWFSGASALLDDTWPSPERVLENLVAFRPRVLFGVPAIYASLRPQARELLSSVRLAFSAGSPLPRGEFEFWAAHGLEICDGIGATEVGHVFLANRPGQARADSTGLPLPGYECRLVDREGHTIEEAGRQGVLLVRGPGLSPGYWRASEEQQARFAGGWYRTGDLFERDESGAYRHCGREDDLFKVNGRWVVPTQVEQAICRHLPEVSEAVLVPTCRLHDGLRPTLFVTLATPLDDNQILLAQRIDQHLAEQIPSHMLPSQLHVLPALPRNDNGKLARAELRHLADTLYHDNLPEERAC

PqsE = biological target: T3, PqsE (Pseudomonas aeruginosa, UniProt P20581); experiment: biolayer interferometry (Octet K2); format: binding
T3 construct: His6-tagged PqsE (pET30a-His6-pqsE), expressed in E. coli BL21 Star (DE3)

PqsA D299A = biological target: T4, PqsA D299A (Pseudomonas aeruginosa, UniProt Q9I4X3, D299A); experiment: biolayer interferometry (Octet K2); format: binding
T4 construct: His6-tagged PqsA D299A (pET30a-His6-pqsA^D299A), expressed in E. coli BL21 Star (DE3)
T4 sequence (Q9I4X3 1-517 D299A): T2 sequence (Q9I4X3 1-517 G279A)

LasR = biological target: T5, LasR (Pseudomonas aeruginosa, UniProt P25084); experiment: biolayer interferometry (Octet K2); format: binding
T5 construct: His6-tagged LasR (pET30a-His6-LasR), expressed in E. coli BL21 Star (DE3)

RhlR = RhlR (Pseudomonas aeruginosa, UniProt P54292); experiment: biochemical
[1] = biological target: T6, anthranilyl-CoA synthetase PqsA (Pseudomonas aeruginosa, UniProt Q9I4X3); experiment: biolayer interferometry (Octet K2); format: binding
T6 construct: His6-tagged PqsA (pET30a-His6-pqsA), expressed in E. coli BL21 Star (DE3)

PqsR = biological target: T7, PqsR (Pseudomonas aeruginosa, UniProt Q9I4X0); experiment: biochemical; set-up: biolayer interferometry (BLI) binding to purified His6-tagged protein
T7 construct: gene mvfR; His6-tagged PqsR (pET30a-His6-pqsR)
Protocol: (§1) [compound left out]. Cell debris was removed by centrifugation. […] The purified protein was assessed by SDS-PAGE.

PqsD = biological target: T8, PqsD (Pseudomonas aeruginosa, UniProt P20582); experiment: biochemical; set-up: biolayer interferometry (BLI) binding to purified His6-tagged protein
T8 construct: His6-tagged PqsD (pET30a-His6-pqsD)
Protocol: as §1

LasI = biological target: T9, LasI (Pseudomonas aeruginosa, UniProt P33883); experiment: biochemical; set-up: biolayer interferometry (BLI) binding to purified His6-tagged protein
T9 construct: His6-tagged LasI (pET30a-His6-lasI)
Protocol: as §1

RhlI = biological target: T10, RhlI (Pseudomonas aeruginosa, UniProt P54291); experiment: biochemical; set-up: biolayer interferometry (BLI) binding to purified His6-tagged protein
T10 construct: His6-tagged RhlI (pET30a-His6-rhlI)
Protocol: as §1

Row | SMILES | MIC (MDR P. aeruginosa C218) [µg/mL] | further results
1 | NCC[C@H](O)C(=O)N[C@@H]1C[C@H](N)[C@@H](O[C@H]2O[C@H](CN)[C@@H](O)[C@H](O)[C@H]2O)[C@H](O)[C@H]1O[C@H]1O[C@H](CO)[C@@H](O)[C@H](N)[C@H]1O [Amikacin] | 7.8 (≈ 13.3 µM) | 
2 | CC1(C)S[C@@H]2[C@H](NC(=O)[C@H](NC(=O)N3CCNC3=O)c3ccccc3)C(=O)N2[C@H]1C(=O)O [Azlocillin] | 4000 (≈ 8670 µM) | 
3 | C[C@H]1[C@H](NC(=O)/C(=N\OC(C)(C)C(=O)O)c2csc(N)n2)C(=O)N1S(=O)(=O)O [Aztreonam] | 4000 (≈ 9190 µM) | 
4 | CO/N=C(\C(=O)N[C@@H]1C(=O)N2C(C(=O)[O-])=C(C[N+]3(C)CCCC3)CS[C@H]12)c1csc(N)n1 [Cefepime] | 4000 (≈ 8320 µM) | 
5 | CC(C)(O/N=C(\C(=O)N[C@@H]1C(=O)N2C(C(=O)[O-])=C(C[n+]3ccccc3)CS[C@H]12)c1csc(N)n1)C(=O)O [Ceftazidime] | 500 (≈ 915 µM) | 
6 | C[C@@H](O)[C@H]1C(=O)N2C(C(=O)O)=C(S[C@@H]3CN[C@H](CNS(N)(=O)=O)C3)[C@H](C)[C@H]12 [Doripenem] | 500 (≈ 1190 µM) | 
7 | COc1c(N2CCNC(C)C2)c(F)cc2c(=O)c(C(=O)O)cn(C3CC3)c12 (centres unmarked) [Gatifloxacin] | 62.5 (≈ 166 µM) | 
8 | C[C@@H](O)[C@H]1C(=O)N2C(C(=O)O)=C(SCCNC=N)C[C@H]12 [Imipenem] | 500 (≈ 1670 µM) | 
9 | NC[C@H]1O[C@H](O[C@H]2[C@H](O)[C@@H](O[C@H]3O[C@H](CO)[C@@H](O)[C@H](N)[C@H]3O)[C@H](N)C[C@@H]2N)[C@H](O)[C@@H](O)[C@@H]1O [Kanamycin] | 310 (≈ 640 µM) | 
10 | C[C@H]1COc2c(N3CCN(C)CC3)c(F)cc3c(=O)c(C(=O)O)cn1c23 [Levofloxacin] | 62.5 (≈ 173 µM) | 
11 | CCn1cc(C(=O)O)c(=O)c2cc(F)c(N3CCNC(C)C3)c(F)c21 (centres unmarked) [Lomefloxacin] | 125 (≈ 356 µM) | 
12 | C[C@@H](O)[C@H]1C(=O)N2C(C(=O)O)=C(S[C@@H]3CN[C@H](C(=O)N(C)C)C3)[C@H](C)[C@H]12 [Meropenem] | 500 (≈ 1300 µM) | 
13 | CCn1cc(C(=O)O)c(=O)c2cc(F)c(N3CCNCC3)cc21 [Norfloxacin] | 4000 (≈ 12500 µM) | 
14 | CC1COc2c(N3CCN(C)CC3)c(F)cc3c(=O)c(C(=O)O)cn1c23 (centres unmarked) [Ofloxacin] | 500 (≈ 1380 µM) | 
15 | CCN1CCN(C(=O)N[C@@H](C(=O)N[C@@H]2C(=O)N3[C@@H]2SC(C)(C)[C@@H]3C(=O)O)c2ccccc2)C(=O)C1=O [Piperacillin] | 4000 (≈ 7730 µM) | 
16 | NC[C@H]1O[C@H](O[C@H]2[C@H](O)[C@@H](O[C@H]3O[C@H](CO)[C@@H](O)[C@H](N)[C@H]3O)[C@H](N)C[C@@H]2N)[C@H](N)C[C@@H]1O [Tobramycin] | 3.9 (≈ 8.34 µM) | 
17 | c1ccc2c(c1)[nH]c1cnccc12 [norharmane] |  | Kd (PqsA G279A): 1100 µM; Kd (PqsE): 500 µM; Kd (PqsA D299A): 1650 µM; Kd (LasR): 2290 µM; Kd (RhlR): > 1000 µM; Kd [1]: 2.54 µM; Kd (PqsR): > 1000 µM; Kd (PqsD): > 1000 µM; Kd (LasI): > 1000 µM; Kd (RhlI): > 1000 µM
